The subject of experiment [1] is four human NSCLC cell lines. In kind it is cell-based. The following applies: three days, FIG. 6A.
Experiment [2] has as its target T1, α1β1 Na+/K+-ATPase (Rattus norvegicus, UniProt P06685).
T1 construct: made in house; host or cells: Sf-9 insect cells, baculovirus
Nature of the experiment: Na+,K+-ATPase activity assay on homogenates of Sf-9 cells expressing α1β1 isozyme (32Pi release from ATP). It counts as biochemical.
Procedure: Samples were preincubated with the inhibitor for 10 min. The assay was started by the addition of ATP with 0.2 μCi γ[32P]-ATP (2 mM final concentration). […] Released 32Pi-Pi was converted into phosphomolybdate and extracted with isobutanol. The radioactivity in 150 μl of the organic phase was measured by liquid scintillation counting.

Experiment [3] concerns the target T1, α1β1 Na+/K+-ATPase. The following applies: Table 4A, from Blanco et al. 2005; read-out: inhibition constant (Ki) α1β1; cited from earlier work.
Experiment [4] concerns α1β1, α2β1 and α3β1 Na,K-ATPases. Nature of the experiment: Na+,K+-ATPase activity assay on Sf-9 homogenates, statements for all isozymes together. It counts as biochemical. Here is the method:
Na^+,K^+-ATPase activity was assayed on homogenates of Sf-9 cells expressing the α1β1, α2β1 and α3β1 isozymes. The initial rate of release of ^32Pi from γ[^32P]-ATP was measured. The ATPase activity of 30-40 μg total protein samples was measured in a final volume of 0.25 ml in a medium containing 120 mM NaCl, 30 mM KCl, 3 mM MgCl2, 0.2 mM EGTA, 30 mM Tris-HCl (pH 7.4)±particular concentrations of a tested agent, e.g., herein compound 2.
Samples were preincubated with the inhibitor for 10 min. The assay was started by the addition of ATP with 0.2 μCi γ[32P]-ATP (2 mM final concentration). Following 30 min incubation at 37° C. the tubes were placed on ice, and the reaction was terminated by the addition of 25 μL of 55% trichloroacetic acid. Released 32Pi-Pi was converted into phosphomolybdate and extracted with isobutanol. The radioactivity in 150 μl of the organic phase was measured by liquid scintillation counting. […] The specific activity was therefore determined as the difference in ATP hydrolysis in the presence and absence of 0.0001 M compound 2.
To determine the effect of compound 2 on the activity of the Na^+/K^+-ATPase and its various isozymes, α1β1, α2β1 and α3β1 sodium pump complexes were produced using the baculovirus expression system and dose-response curves to the compound were performed. […]

The next experiment concerns the target T2, α3β1 Na+/K+-ATPase (Rattus norvegicus, UniProt P06687).
T2 construct: made in house; host or cells: Sf-9 insect cells, baculovirus
Nature of the experiment: Na+,K+-ATPase activity assay on homogenates of Sf-9 cells expressing α3β1 isozyme (32Pi release from ATP). In kind it is biochemical.

For experiment [5], the system named is C6 rat glioma, MXT mouse mammary carcinoma and mouse B16F10 melanoma cell lines. Nature of the experiment: In vitro anti-tumour effect on three rodent cancer cell lines. It counts as cell-based. The following applies: high doses (10 μM), FIG. 6B. The source says:
We also made use of three murine cell lines, i.e., three cancer cell lines including the C6 rat glioma, the MXT mouse mammary adenocarcinomas and the mouse B16F10 melanoma models.
Then, we made use of three rodent cancer cell lines, i.e. the C6 rat glioma, the MXT mouse […] mammary carcinoma and the mouse B16F10 melanoma models.

For the next experiment, the target named is T3, α2β1 Na+/K+-ATPase (Rattus norvegicus, UniProt P06686).
T3 construct: made in house; host or cells: Sf-9 insect cells, baculovirus
Briefly: Na+,K+-ATPase activity assay on homogenates of Sf-9 cells expressing α2β1 isozyme (32Pi release from ATP). In kind it is biochemical.

Like-named read-outs stand apart in the source and are kept apart here.

Turning to `C[C@H]1O[C@@H](O[C@H]2[C@@H](O)C[C@H](O[C@H]3[C@@H](O)C[C@H](O[C@H]4CC[C@@]5(C)[C@H](CC[C@@H]6[C@@H]5CC[C@]5(C)[C@@H](C7=CC(=O)OC7)CC[C@]65O)C4)O[C@@H]3C)O[C@@H]2C)C[C@H](O)[C@@H]1O` [digitoxin], the “impairment of global growth (rank among four cardenolides)” value (from here on “impairment of global growth”) in experiment [1] is reported as “digoxin<digitoxin<ouabain<Compound 2”.

In general, Ki refers to a measure of affinity in units of concentration, obtained from inhibition or displacement. `C[C@H]1O[C@@H](O[C@H]2[C@@H](O)C[C@H](O[C@H]3[C@@H](O)C[C@H](O[C@H]4CC[C@@]5(C)[C@H](CC[C@@H]6[C@@H]5C[C@@H](O)[C@]5(C)[C@@H](C7=CC(=O)OC7)CC[C@]65O)C4)O[C@@H]3C)O[C@@H]2C)C[C@H](O)[C@@H]1O` [Digoxin, reference compound]: on α1β1 Na+/K+-ATPase [2], the Ki is 930 ± 410 nM. Besides, the “impairment of global growth” value in experiment [1] is “weakest”.

On to `C[C@@H]1O[C@@H](O[C@H]2C[C@@H](O)[C@]3(CO)[C@H]4[C@H](O)C[C@]5(C)[C@@H](C6=CC(=O)OC6)CC[C@]5(O)[C@@H]4CC[C@]3(O)C2)[C@H](O)[C@H](O)[C@H]1O` [Ouabain], for which the inhibition constant Ki at α1β1 Na+/K+-ATPase [3] is 43000 ± 19000 nM. The “impairment of global growth” value in experiment [1] is “digoxin<digitoxin<ouabain<Compound 2”.

In the case of `C[C@@H]1CC2(NC(=O)CS2)[C@]2(O)O[C@@H]3C[C@]4(CO)C5CC[C@]6(C)[C@@H](C7=CC(=O)OC7)CC[C@]6(O)[C@@H]5CC[C@H]4C[C@H]3O[C@@H]2O1` (stereo partly shown) [Compound 2], the “ATPase activity at 0.0001 M compound versus 0.001 M ouabain” value in experiment [4] (0.0001 M compound 2) was “comparable to that obtained with 0.001 M ouabain”. For the same compound, the “effect on Na,K-ATPase isozymes” value in experiment [4] (all α1β1, α2β1 and α3β1) is given as “inhibitory effect”. Further, the Ki at α1β1 Na+/K+-ATPase [2] (Sf-9 expressed α1β1, Table 4A, read-out: inhibition constant (Ki) α1β1) is 160 ± 70 nM; on α3β1 Na+/K+-ATPase it was 3.2 ± 3.4 nM; on α2β1 Na+/K+-ATPase, 15 ± 8 nM. Besides, on α1β1 Na+/K+-ATPase [2] (ratio of Ki versus ouabain), the “potency of α1β1 inhibition relative to ouabain” value was “approximately 100 times”. The “impairment of global growth” value in experiment [1] was “strongest”. For the same compound, in experiment [5], the “anti-tumor effects in rodent cancer cell lines” value is reported as “displays actual anti-tumor effects”.

The values above are taken from patent US20100068198A1, “TARGETING OF ALPHA-1 OR ALPHA-3 SUBUNIT OF NA+, K+-ATPASE IN THE TREATMENT OF PROLIFERATIVE DISEASES” (priority 2006, published 2010).
